Data taken from patent US11136321B2, “Tricyclic compounds” (ALIGOS THERAPEUTICS, INC., priority 2019, dated 2021).
pEC50: −log10 of the molar value.

tested on: HBV; experiment: HBV-DNA antiviral assay using HepG2.117 cells; assay type: cell-based, genotype D HBV; settings: Hepatitis B virus, 72 h, intracellular HBV DNA by qPCR, 3 days incubation
Description: The following assay procedure describes the HBV antiviral assay, using HepG2.117 cells, which carry a stably integrated genotype D HBV genome under the control of a Tet-off promoter, and intracellular HBV DNA quantification as endpoint. Cell viability is assessed in parallel by measuring the intracellular ATP content using ATPlite (Perkin Elmer).
On day 0, HepG2.117 cells (which are maintained in routine cell culture with doxycycline present in the medium at a final concentration of 1 μg/mL) were seeded in 96-well plates (white with clear bottom) at a density of 2.0×10^4 cells/well (0.1 mL/well) in medium without doxycycline to induce pgRNA transcription and subsequent formation of HBV particles. The cells were incubated at 37° C. and 5% CO2.
On day 1, medium was removed from each well, the test articles were diluted in culture medium without doxcycyline and 100 μL was added to cell culture wells (9 concentrations, 4-fold dilution). For each plate, 6 untreated (merely DMSO) wells were included. The final concentration of DMSO in the culture medium was 2%. Each plate was prepared in duplicate (one for HBV DNA extraction, one for ATPlite measurement). The cells were incubated at 37° C. and 5% CO2 for 3 days.
On day 4, cell viability was assessed using ATPlite and cell lysates were prepared for HBV DNA extraction and subsequent quantification by qPCR.
Medium was removed from each well and 100 μL of 0.33% NP-40 in H2O was added to each well. Plates were sealed, incubated at 4° C. for 5 mins, vortexed extensively and centrifuged briefly. Next, 35 μL of lysate was added to 65 μL QuickExtract DNA Extraction Solution (Epicentre) in a PCR plate for each well. PCR plate was incubated at 65° C. for 6 mins, 98° C. for 2 mins and finally cooled to 4° C. HBV DNA was then quantified by qPCR with HBV-specific primers and probes as specified in Table 1 using the Bio-Rad SSOAdvanced Universal Probes Supermix on a CFX96 machine (Bio-Rad). The PCR cycle program consisted of 95° C. for 3 mins, followed by 40 cycles at 95° C. for 10 sec and 60° C. for 30 sec.
A DNA standard was prepared by dilution of an IDT gBlock corresponding to the amplicon with concentrations ranging from 10^2 to 10^8 copies/input (i.e. per 4 μL) and used to generate a standard curve by plotting Cq values vs. HBV DNA standard concentration. The quantity of HBV DNA in each sample was determined by interpolating from the standard curve.
Cell viability was calculated as follows: % Cell viability=(luminescence value of test sample)/(average luminescence value of 2% DMSO control)×100%. HBV DNA inhibition was calculated as follows: 100−(HBV DNA copy number of test sample)/(average HBV DNA copy number of 2% DMSO control)×100%. No normalization to entecavir was required due to the excellent dynamic window of this assay. The CC50, EC50 and EC90 values were determined by dose-response curves fitted by GraphPad Prism using “log (agonist) vs. response—Variable slope”.

Structure (SMILES)	pEC50
CNC(=O)c1ccc(-n2c(=O)c3c(n4ncc([C@H](C)c5ccccc5)c24)CN(C(=O)c2ccc(Br)c(C#N)c2)CC3)cc1 (stereo in doubt) [Compound 57, 4-[12-(4-bromo-3-cyano-benzoyl)-8-oxo-5-[rac-(1R)-1-phenylethyl]-2,3,7,12-tetrazatricyclo [7.4.0.0 2,6]trideca-1(9),3,5-trien-7-yl]-N-methyl-benzamide]	≥ 7.00
CNC(=O)c1ccc(-n2c(=O)c3c(n4ncc([C@@H](C)c5ccccc5)c24)CN(C(=O)c2ccc(Br)c(C#N)c2)CC3)cc1 (stereo in doubt) [Compound 58, 4-[12-(4-bromo-3-cyano-benzoyl)-8-oxo-5-[rac-(1S)-1-phenylethyl]-2,3,7,12-tetrazatricyclo [7.4.0.0 2,6]trideca-1(9),3,5-trien-7-yl]-N-methyl-benzamide]	≥ 7.00
CNC(=O)c1ccc(-n2c(=O)c3c(n4ncc(N[C@@H](C)c5ccccc5)c24)CN(C(=O)c2ccc(Br)c(Cl)c2)CC3)cc1 (stereo in doubt) [Compound 74, 4-[12-(4-bromo-3-chloro-benzoyl)-8-oxo-5-[[rac-(1S)-1-phenylethyl]amino]-2,3,7,12-tetrazatricyclo [7.4.0.0 2,6]trideca-1(9),3,5-trien-7-yl]-N-methyl-benzamide]	≥ 7.00
CNC(=O)c1ccc(-n2c(=O)c3c(n4ncc(N[C@H](C)c5ccccc5)c24)CN(C(=O)c2ccc(Br)c(Cl)c2)CC3)cc1 (stereo in doubt) [Compound 79, 4-[12-(4-bromo-3-chloro-benzoyl)-8-oxo-5-[[rac-(1R)-1-phenylethyl]amino]-2,3,7,12-tetrazatricyclo [7.4.0.0 2,6]trideca-1(9),3,5-trien-7-yl]-N-methyl-benzamide]	6.30 to 7.00
CNC(=O)c1ccc(-n2c(=O)c3c(n4ncc(Cc5ccccc5)c24)CN(C(=O)c2ccc(Br)c(C#N)c2)[C@@H](C)C3)cc1 (stereo in doubt) [Compound 80, N-methyl-4-[rac-(11S)-5-benzyl-12-(4-bromo-3-cyano-benzoyl)-11-methyl-8-oxo-2,3,7,12-tetrazatricyclo [7.4.0.0 2,6]trideca-1(9),3,5-trien-7-yl] benzamide]	6.30 to 7.00
CNC(=O)c1ccc(-n2c(=O)c3c(n4ncc(Cc5ccccc5)c24)CN(C(=O)c2ccc(Br)c(C#N)c2)[C@H](C)C3)cc1 (stereo in doubt) [Compound 81, N-methyl-4-[rac-(11R)-5-benzyl-12-(4-bromo-3-cyano-benzoyl)-11-methyl-8-oxo-2,3,7,12-tetrazatricyclo [7.4.0.0 2,6]trideca-1(9),3,5-trien-7-yl] benzamide]	≥ 7.00
Cn1c(=O)c2c(n3nccc13)CN(C(=O)Nc1ccc(F)c(Cl)c1)CC2 [Compound 1, N-(3-chloro-4-fluorophenyl)-4-methyl-5-oxo-5,6,7,9-tetrahydropyrazolo[1,5-a]pyrido[4,3-e]pyrimidine-8(4H)-carboxamide]	5.30 to 6.30
O=C(Nc1ccc(F)c(Cl)c1)N1CCc2c(n3nccc3n(Cc3ccccc3)c2=O)C1 [Compound 2, 4-benzyl-N-(3-chloro-4-fluorophenyl)-5-oxo-5,6,7,9-tetrahydropyrazolo[1,5-a]pyrido[4,3-e]pyrimidine-8(4H)-carboxamide]	5.30 to 6.30

same assay, conditions: intracellular HBV DNA by qPCR, 3 days incubation

Structure (SMILES)	pEC50
CNC(=O)c1ccc(-n2c(=O)c3c(n4ncc(Cc5ccccc5)c24)CN(C(=O)c2ccc(Br)c(Cl)c2)C(C)C3)cc1 (single isomer, unassigned) [Compound 71, 4-[(11R*)-5-benzyl-12-(4-bromo-3-chlorobenzoyl)-11-methyl-8-oxo-2,3,7,12-tetraazatricyclo[7.4.0.0^[2,6]]trideca-1(9),3,5-trien-7-yl]-N-methylbenzamide]	≥ 7.00
CNC(=O)c1ccc(-n2c(=O)c3c(n4ncc(Cc5ccccc5)c24)CN(C(=O)c2ccc(Br)c(Cl)c2)C(C)C3)cc1 (single isomer, unassigned) [Compound 72, 4-[(11S*)-5-benzyl-12-(4-bromo-3-chlorobenzoyl)-11-methyl-8-oxo-2,3,7,12-tetraazatricyclo[7.4.0.0^[2,6]]trideca-1(9),3,5-trien-7-yl]-N-methylbenzamide]	≥ 7.00
